Measured values published in patent publication US7521540B2, “CYR61 compositions and methods” (Munin Corporation, priority 1996, dated 2009).

Experiments:
[1] = system: 1064SK primary human foreskin fibroblasts; experiment: Fibroblast adhesion assay (methylene blue, A620); type: cell-based
Protocol: The ability of Cyr61 to mediate cell adhesion in normal fibroblasts was investigated. Microtiter wells were coated with purified recombinant Cyr61 protein, and 1064SK primary human foreskin fibroblasts were allowed to adhere under serum-free conditions. […] 50 μl cell suspensions were plated on microtiter wells coated with varying concentrations (0.5-5.0 μg/ml) of Cyr61 protein. After incubation at 37° C. for 30 minutes, adherent cells were fixed and stained with methylene blue.
In another experiment, microtiter wells were coated with either BSA, Cyr61 (2 μg/ml), or vitronectin (VN; 0.5 μg/ml) and blocked with affinity-purified anti-Cyr61 antibodies for one hour at 37° C. before 1064SK cells were plated.
The effects of divalent cations in cell adhesion to Cyr61 was also investigated. […] Data are means from triplicate determinations. […] Inhibition by Ca^2+ is characteristic of adhesion through some members of the β1 family of integrins, including receptors that bind type I collagen, laminin, and vitronectin (integrins α2β1, α6β1, and αVβ1) in fibroblasts, as well as the lymphocyte-specific integrin αLβ2.
The effects of RGD peptides on Cyr61-mediated fibroblast binding was tested by plating cells in wells coated with Cyr61 (2 μg/ml). Type I collagen (2 μg/ml) or vitronectin (0.5 μg/ml), 2 mM GRGDSP or GRGESP peptide was then added.
Cells were also pre-incubated with 40 μg/ml monoclonal antibodies against the integrin α5 or the integrin αV subunits at room temperature for 30 minutes, then plated on wells coated with Cyr61 (2 μg/ml), vitronectin (0.5 μg/ml) or fibronectin (FN, 1 μg/ml). […] The data are means, representative of three experiments.
The 1064 SK cells were also analyzed using the monoclonal antibody JBIA, which binds the β1 integrin subunit. Cells were pre-incubated with the antibody (50 μg/ml) before plating on microtiter wells coated with Cyr61 (2 μg/ml), Type I collagen (2 μg/ml), or vitronectin (0.5 μg/ml). […] Data are means, representative of three experiments.
To identify the specific β1 integrin that mediates fibroblast adhesion to Cyr61, the inhibitory effects of function-blocking monoclonal antibodies were tested against various integrin α subunits. […] The data are means, representative of at least three experiments.

HUVE cells = experiment: Fisp12 cell attachment assay, HUVE cells; type: cell-based, human; conditions: EDTA added to culture medium; cell type not stated
Protocol: The capacity of Fisp12 to affect cell adhesion was also investigated. Fisp12 cell attachment assays were performed essentially as described (Oliver et al., [1989]). 96-well immunological plates were coated for 16 hours at 4° C. with 20 μg/ml Cyr61, Fisp12 or fibronectim (Gibco BRL) in PBS containing 0.1 mg/ml BSA and blocked with 10 mg/ml BSA for 1 hour at room temperature. HUVE cells were plated at 10^4 cells/well in F12K media with 10% FBS (Hyclone Laboratories, Inc., Logan, Utah); NIH 3T3 fibroblasts were plated at 3×10^4 cells/well and Mv1Lu cells were plated at 5×10^4 cells/well in minimal essential medium (MEM) with 10% FBS. After 1 hour incubation cells were fixed, stained with methylene blue and quantified as described (Oliver et al., [1989]). Cell spreading was examined on cells plated on 100 mm polystyrene petri dishes coated with 2.5 ml of a 20 μg/ml solution of Cyr61, Fisp12 or fibronectin. 10^7 cells were plated on each dish and cell spreading was analyzed 90 minutes after plating by microscopy at 100× magnification.

platelets = experiment: Platelet adhesion assay; type: cell-based, human
Protocol: Microtiter wells were coated with purified recombinant Fisp12/mCTGF or Cyr61, and the adhesion of isolated platelets to these proteins was detected with ^125I-mAb15, an anti-β3 monoclonal antibody (Frelinger et al., J. Biol. Chem 265:6346-6352 [1990]). Platelets were obtained from venous blood drawn from healthy donors and collected into acid-citrate-dextrose (ACD). Washed platelets were prepared by diffenential centrifugation as described (Kinlough-Rathbone et al. Thromb. Haemostas 2:291-308 [1997]), and finally resuspended in HEPES-Tyrode's buffer (5 mM HEPES, pH 7.35, 1 mM MgCl2, 1 mM CaCl2, 135 mM NaCl, 2.7 mM KCl, 11.9 mM NaHCO3, 1 mg/ml dextrose and 3.5 mg/ml BSA). The platelet concentration was adjusted to […].
Microtiter wells (Immulon 2 removawell strips, Dynex Technologies, Inc.) were coated with Cyr61, Fisp12/mCTGF, or fibrinogen (25 μg/ml, 50 μl/well) incubated overnight at 22° C., and then blocked with 3% BSA at 37° C. for 2 hours. Washed platelets were added to the wells (100 μl/well) in the presence and absence of platelet agonists and incubated at 37° C. for 30 minutes. The wells were washed with HEPES-Tyrode's buffer and adherent platelets were detected with ^125I-mAb15, an anti-β3 monoclonal antibody. Exposure to the labeled antibody ([…], 50 μl/well) proceeded for 1 hour at 22° C. After extensive washing with HEPES-Tyrode's buffer, bound radioactivity was determined by γ-counting. In inhibition studies, washed platelets were pre-incubated with blocking peptides or antibodies at 37° C. for 15 minutes prior to addition to microtiter wells.
The anti-β3 antibody was radioiodinated with carrier-free Na^125I (Amersham Corp.) using the IODO-BEADS iodination reagent (Pierce) to a specific activity of approximately 2 μCi/μg. […] As controls, BSA- and fibrinogen-coated (KabiVitrum Inc.) wells were also used. Initially, the adhesion of unactivated versus activated platelets to immobilized Fisp12/mCTGF and Cyr61 was compared. To ensure that plateltes were not activated during the washing procedures, PGl2 (100 nM), which inhibits activation by raising platelet cAMP levels, was added to the platelet suspensions. […]

αllbβ3 = target: T1, αllbβ3 (Homo sapiens, UniProt P05106+P08514); experiment: Solid-phase binding assay with purified integrin
T1 construct: from tissue; host or cells: outdated human platelets
Protocol: In these experiments, activated and unactivated αllbβ3 were purified from platelet lysates. Activated αllbβ3 was purified by RGD affinity chromatography, as described (Knezevic et al., J. Biol. Chem. 271:16416-16421 [1996]). Briefly, outdated human platelets were isolated by differential centrifugation and solubilized in lysis buffer (10 mM HEPES, pH 7.4, 0.15 M NaCl, containing 1 mM CaCl2, 1 mM MgCl2 100 μM leupeptin, 1 mM phenylmethylsulfonyl fluoride, 10 mM-ethylmaleimide, and 50 mM octylglucoside). The octylglucoside extract was incubated with 1 ml GRGDSPK-coupled Sepharose 4B overnight at 4° C. After washing with 15 ml column buffer (same as lysis buffer except it contained 25 mM octylglucoside), bound αllbβ3 was eluted with 1.7 mM H12 (2 ml) in column buffer. The H12 eluate was applied to a Sephacryl S-300 High Resolution column (1.5×95 cm), and αllbβ3 was eluted with 10 mM HEPES, pH 7.4, 0.15 M NaCl, 1 mM CaCl2, 1 mM MgCl2 and 25 mM octylglucoside.
Unactivated αllbβ3 was isolated by the method of Fitzgerald et al., Anal. Biochem. 151:169-177 (1985), with slight modifications. The flow-through fraction of the GRGDSPK-Sepharose column was applied to a concanavalin A-Sepharose 4B column (1×20 cm). Unbound proteins were washed with 50 ml column buffer, and bound αllbβ3 was then eluted with 100 mM mannose dissolved in column buffer. Fractions containing αllbβ3 were further purified on a Sephacryl S-300 High Resolution column
To perform the solid-phase binding assay, purified αllbβ3 was added to wells coated with either Cyr61 or Fisp12 (mCTGF) in the presence or absence of inhibitors and binding was allowed to proceed for 3 hours at 37° C. Unbound receptor was removed and the wells wee washed twice with HEPES-Tyrode's Buffer. The binding of purified αllbβ3 to Cyr61 or Fisp12/mCTGF immobilized onto microtiter wells was detected with ^125I-mAb15.

αVβ3 integrin = target: T2, αVβ3 integrin (Homo sapiens, UniProt P05106+P06756); experiment: Integrin binding assay (ligand-receptor ELISA)
T2 construct: αVβ3 integrin purification from HUVE cell lysates was done as described in Pytela et al; endogenous in cells; host or cells: HUVE cells
Protocol: αVβ3 integrin purification from HUVE cell lysates was done as described in Pytela et al., Meth. Enzynmol., 144:475-489 (1987). Briefly, 10^8 cells were lysed in 1 ml of PBS containing 1 mM CaCl2, 1 mM MgCl2, 0.5 mM PMSF and 100 mM octylglucoside. The lysate was passed four times through a 0.5 ml column containing RGDSPK Sepharose (prepared from the cyanogen bromide activated Sepharose CL 4B as described in Lam, S. C-T., J. Biol. Chem., 267:5649-5655 (1992). The column was washed with 10 ml of the lysis buffer and the bound protein was eluted with 2 ml of the same buffer containing 1 mM RGDS peptide at room temperature. The αVβ3 integrin was dialyzed against PBS containing 1 mM CaCl2, 1 mM MgCl2, 5 mM octylglucoside and 0.1 mM PMSF with three changes of the dialysis buffer to remove the RGDS peptide. The protein was stored in aliquots at −70° C. The purity of the integrin was determined by SDS-PAGE under non-reducing conditions, followed by silver staining.
The integrin binding assay was developed in accordance with the disclosures in Brooks et al., Cell 85:683-693 (1996), and Lam, S. C-T (1992). Approximately 50 ng of the integrin in a total volume of 50 μl were added per well of 96-well immunological Pro-Bind plates (Falcon) and incubated overnight at 4° C. Non-specific sites were blocked with 20 mg/ml BSA in the same buffer and washed four times in that buffer. Treated plates were incubated with 1 μg/ml Cyr61 or 0.1 μg/ml vitronectin for 3 hours at room temperature. […] The final dilution of the LM609 ascites fluid was 1:200. Bound proteins were detected by specific polyclonal antisera (anti-Cyr61 antiserum was diluted 1:500 and anti-vitronectin antiserum was diluted 1:1000 in PBS containing 1 mM CaCl2, 1 mM MgCl2, and 5 mg/ml BSA) followed by a secondary antibody-horseradish peroxidase conjugate (1:20000 in the same buffer). […] Horseradish peroxidase (HRP) was detected with an HRP immunoassay kit (Bio-Rad Laboratories). The colorimetric reaction was developed for 15-30 minutes at room temperature, stopped by the addition of H2SO4, and the absorbance at 450 nm was measured. […]

Limb mesenchymal cells [2] = conditions: 50 μg/ml (200 nM), literature; cited from earlier work
Limb mesenchymal cells [3] = experiment: Limb bud mesenchymal cell attachment; type: cell-based, mouse; conditions: within 1 hour of plating
Protocol: Cyr61, fibronectin (Gibco), or tenascin (Gibco) were diluted in 0.1% protease-free bovine serum albumin (BSA) in PBS with 0.5 mM PMSF, to a final concentrations of 10 or 50 μg/ml. A 10 μl drop/well was placed in a non-tissue culture treated 24-well plate (Corning), and incubated at room temperature for 2 hours. The wells were blocked with 1% BSA in PBS for 1 hour at room temperature, and rinsed with serum-free MEM (Modified Eagle's Medium). Limb mesenchymal cells, suspended at 5×10^5 cell/ml in serum-free MEM, were added at a volume of 400 μl/well, and incubated at 37° C., 5% CO2 for 1 or 3 hours. At each time point, the cell suspension was removed, the wells were rinsed with MEM and the remaining adherent cells were photographed.

[4] = EDTA 5 mM, RGDS 0.5 mM, LM609 ascites 1:200

T2 sequence (P06756 31-889 limits assumed): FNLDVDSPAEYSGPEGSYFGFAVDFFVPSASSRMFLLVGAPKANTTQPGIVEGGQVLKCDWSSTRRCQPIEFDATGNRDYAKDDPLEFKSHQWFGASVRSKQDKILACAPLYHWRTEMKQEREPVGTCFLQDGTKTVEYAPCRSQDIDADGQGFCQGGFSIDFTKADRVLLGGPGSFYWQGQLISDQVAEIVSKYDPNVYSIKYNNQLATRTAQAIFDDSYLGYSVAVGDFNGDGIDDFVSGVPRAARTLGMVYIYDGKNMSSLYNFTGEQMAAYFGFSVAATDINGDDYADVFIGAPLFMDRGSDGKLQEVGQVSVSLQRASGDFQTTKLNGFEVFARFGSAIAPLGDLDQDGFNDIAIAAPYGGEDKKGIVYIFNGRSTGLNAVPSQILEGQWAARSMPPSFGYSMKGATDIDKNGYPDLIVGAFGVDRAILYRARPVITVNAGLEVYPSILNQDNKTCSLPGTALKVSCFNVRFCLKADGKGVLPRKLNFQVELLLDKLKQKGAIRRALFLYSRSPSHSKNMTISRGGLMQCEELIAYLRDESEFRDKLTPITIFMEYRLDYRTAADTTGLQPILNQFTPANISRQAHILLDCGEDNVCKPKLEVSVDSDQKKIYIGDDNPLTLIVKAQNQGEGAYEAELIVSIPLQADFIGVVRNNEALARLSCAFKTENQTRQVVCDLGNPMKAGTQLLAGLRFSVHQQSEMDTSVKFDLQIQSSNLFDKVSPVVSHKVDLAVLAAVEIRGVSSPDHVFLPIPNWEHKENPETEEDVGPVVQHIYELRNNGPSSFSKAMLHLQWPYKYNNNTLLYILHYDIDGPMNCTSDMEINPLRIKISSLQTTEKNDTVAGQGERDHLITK
T2 sequence (P06756 891-1048 partner limits assumed): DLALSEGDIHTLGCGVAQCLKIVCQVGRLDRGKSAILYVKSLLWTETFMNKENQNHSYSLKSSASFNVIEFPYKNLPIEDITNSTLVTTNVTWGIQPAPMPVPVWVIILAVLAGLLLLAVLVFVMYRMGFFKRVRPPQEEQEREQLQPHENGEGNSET
T2 sequence (P05106 27-788): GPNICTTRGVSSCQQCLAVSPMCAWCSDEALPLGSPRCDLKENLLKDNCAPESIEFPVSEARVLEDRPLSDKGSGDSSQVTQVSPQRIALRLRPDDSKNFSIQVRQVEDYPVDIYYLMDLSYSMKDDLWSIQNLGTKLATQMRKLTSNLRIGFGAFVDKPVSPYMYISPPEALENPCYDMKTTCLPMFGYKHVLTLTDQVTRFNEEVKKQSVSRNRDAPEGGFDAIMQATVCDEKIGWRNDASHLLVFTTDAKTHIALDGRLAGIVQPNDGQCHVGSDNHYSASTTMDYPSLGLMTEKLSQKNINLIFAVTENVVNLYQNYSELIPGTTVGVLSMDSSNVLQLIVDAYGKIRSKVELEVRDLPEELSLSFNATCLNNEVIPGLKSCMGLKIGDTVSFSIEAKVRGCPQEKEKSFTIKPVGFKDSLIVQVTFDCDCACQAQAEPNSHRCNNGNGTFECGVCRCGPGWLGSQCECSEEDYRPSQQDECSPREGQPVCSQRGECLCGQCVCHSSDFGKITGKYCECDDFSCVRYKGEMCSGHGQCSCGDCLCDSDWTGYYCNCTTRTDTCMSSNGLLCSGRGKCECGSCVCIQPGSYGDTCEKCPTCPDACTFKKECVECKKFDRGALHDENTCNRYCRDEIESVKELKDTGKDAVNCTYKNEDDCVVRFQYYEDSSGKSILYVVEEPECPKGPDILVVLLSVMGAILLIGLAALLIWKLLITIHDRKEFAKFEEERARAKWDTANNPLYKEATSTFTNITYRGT

| Molecule | effect of agent on activated platelet adhesion to Cyr61 and Fisp12/mCTGF (platelets) | effect of agent on adhesion of ADP-activated platelets to fibrinogen (platelets) | effect of agent on activated αllbβ3 binding to Fisp12/mCTGF and Cyr61 (αllbβ3) | other results |
| --- | --- | --- | --- | --- |
| O=C(O)CN(CCN(CC(=O)O)CC(=O)O)CC(=O)O [EDTA, Ethylenediamine tetraacetic acid] | completely abolished platelet adhesion to both proteins | completely inhibited |  | 1064SK adhesion to Cyr61-coated wells with agent ([1]; Cyr61 2 μg/ml, agent at the level stated in the block, Mg2+ 5.0 mM after EDTA): about 0.12 A620; 1064SK adhesion to Type I collagen-coated wells with agent ([1]; Type I collagen 2 μg/ml): 0.10 A620; 1064SK adhesion to vitronectin-coated wells with agent ([1]; vitronectin 0.5 μg/ml): 0.05 A620; effect of agent on Fisp12-mediated cell attachment (HUVE cells): inhibited |
| H-HHLGGAKQAGDV-OH [H12] | inhibited platelet adhesion to Cyr61 and Fisp12/mCTGF | completely inhibited | effectively inhibited |  |
| RGDS |  | completely inhibited | specifically blocked | effect of agent on Cyr61 interaction with αVβ3 (αVβ3 integrin; [4]): inhibited; effect of agent on vitronectin interaction with αVβ3 (αVβ3 integrin; [4]): inhibited |
| echistatin | completely blocked platelet adhesion to both proteins | completely inhibited | effectively inhibited |  |
| tenascin: ECM protein (Gibco) |  |  |  | increase of chondrogenesis in micromass cultures (Limb mesenchymal cells [2]): 3 fold; attachment morphology of limb mesenchymal cells (Limb mesenchymal cells [3]): adhered as clusters of rounded cells |
| vitronectin: Human plasma vitronectin, serum spreading factor |  |  |  | inhibition by anti-α6 antibody of binding mediated by the coated protein ([1]; anti-α6 20 μg/ml): 9%; binding to immobilized αVβ3 integrin (αVβ3 integrin; 1 μg/ml Cyr61 or 0.1 μg/ml vitronectin): bound to the immobilized integrin |
